Data from patent US20090143361A1, “Pyrido[3,2-E]Pyrazines, Process For Preparing The Same, And Their Use As Inhibitors Of Phosphodiesterase 10” (ELBION GMBH, priority 2007, published 2009).
Where two headings read alike, the source gives them in different places.

Biological target: PDE10 from pig striatum (Sus scrofa, UniProt A0A287B941)
Experiment: Inhibition of PDE10 from pig striatum ([3H]-cAMP SPA)
Type: biochemical
Settings: read-out: PDE10 pig IC50
Method: Phosphodiesterase isoenzyme 10 (PDE10) activity was determined in preparations of human recombinant PDE10A and PDE10 from pig striatum, respectively.
Striatum from male hybrid pigs (150 kg) were collected and frozen at −70° C.
At the day of preparation 0.5 g striatum was homogenised in 10 ml 50 mM Tris/Mg-buffer at 4° C. and centrifuged for one hour at 100000 g. The supernatant was removed and the pellet was resuspended in the same buffer, but containing 1% Triton and incubated for 45 min at 4° C. The membrane fraction was applied onto a 5 ml Hi Trap™ QHP column at the Akta-FPLC. After washing the column the bound PDE protein was eluted with an increasing sodium chloride gradient (O mM-500 mM sodium chloride) in 50 mM Tris/Mg-buffer at 4° C. in the presence of 1% Triton. […] The fractions with PDE10-activity were pooled and frozen in aliquots until use at −20° C.
(§1) PDE10 activity was determined in a one step procedure in microtiterplates. […] Nonspecific activity was tested without the enzyme. The reaction was initiated by addition of the substrate solution and was carried out at 37° C. for 30 minutes. Enzymatic activity was stopped by addition of 25 μl YSi-SPA-beads (Amersham-Pharmacia). One hour later the mixture was measured in a liquid scintillation counter for microtiterplates (Microbeta Trilux). To pipette the incubation mixture a robot Biomek (Fa. Beckman) is used. […] For determination of IC50 values the Hill-plot, 2-parameter-model, was used.
The phosphodiesterase isoenzyme 10 (PDE10) activity was determined in preparations of rat, pig and guinea pig striatum respectively. Striatum from male Wistar rats (180-200 g), male hybrid pigs (150 kg) and male guinea pigs (CRL (HA), 500 g) respectively were collected and frozen at −70° C.
At the day of preparation 0.5 g striatum was homogenized in 10 ml 50 mM Tris/Mg-buffer at 4° C. and centrifuged for one hour at 100000 g. The supernatant is called the cytosolic fraction and was removed and stored on ice. The pellet was resuspended in the same buffer, but containing 1% Triton and incubated for 45 min at 4° C. Both fractions were independently applied onto a 5 ml Hi Trap™ QHP column at the Akta-FPLC. After washing the columns the bound PDE protein was eluted with an increasing sodium chloride gradient (0 mM-500 mM sodium chloride) in 50 mM Tris/Mg-buffer at 4° C. for the cytosolic fraction and in the presence of 1% Triton for the membrane fraction. […] The fractions with PDE10-activity were pooled and frozen in aliquots until use at −20° C.
as §1, with “YSi-SPA beads” for “YSi-SPA-beads”

Row | IC50 (Table 8) [nM] | IC50 (Table 7) [nM] | SMILES
1 | 10 to 100 |  | COc1ccc2nc(NS(C)(=O)=O)c3c(C)nc(CCC(F)(F)F)n3c2n1 [Example 45, N-[2-Methoxy-7-methyl-9-(3,3,3-trifluoropropyl)imidazo[1,5-a]pyrido[3,2-e]pyrazin-6-yl]methanesulfonamide]
2 | < 10 |  | COc1ccc2nc(C)c3c(C)nc(-c4cccc(Cl)c4Cl)n3c2n1 [Example 89, 9-(2,3-dichlorophenyl)-2-methoxy-6,7-dimethylimidazo[1,5-a]pyrido[3,2-e]pyrazine]
3 |  | < 10 | COc1ccc2nc(C)c3c(C)nc(-c4ccc(Cl)cc4C)n3c2n1 [Example 13, 9-(4-Chloro-2-methylphenyl)-2-methoxy-6,7-dimethylimidazo[1,5-a]pyrido[3,2-e]pyrazine]
4 | > 100 |  | COc1ccc2nc(C)c3c(C)nc(-c4cccc(C(=O)N5CCCCC5)c4)n3c2n1 [Example 105, 2-Methoxy-6,7-dimethyl-9-[3-(piperidin-1-ylcarbonyl)phenyl]imidazo[1,5-a]pyrido[3,2-e]pyrazine]
5 | 10 to 100 |  | COc1ccc2nc(C)c3c(C)nc(-c4cccc(OC(F)(F)F)c4)n3c2n1 [Example 63, 2-Methoxy-6,7-dimethyl-9-[3-(trifluoromethoxy)phenyl]imidazo[1,5-a]pyrido[3,2-e]pyrazine]
6 | > 100 |  | CNC(=O)c1cccc(-c2nc(C)c3c(C)nc4ccc(OC)nc4n23)c1 [Example 100, 3-(2-Methoxy-6,7-dimethylimidazo[1,5-a]pyrido[3,2-e]pyrazin-9-yl)-N-methylbenzamide]
7 | > 100 |  | COc1ccc2nc(N3CCC3)c3c(C)nc(CCC(F)(F)F)n3c2n1 [Example 43, 6-Azetidin-1-yl-2-methoxy-7-methyl-9-(3,3,3-trifluoropropyl)imidazo[1,5-a]pyrido[3,2-e]pyrazine]
8 | 10 to 100 |  | COc1ccc2nc(C)c3c(C)nc(-c4ccccc4-c4ccccc4)n3c2n1 [Example 70, 9-Biphenyl-2-yl-2-methoxy-6,7-dimethylimidazo[1,5-a]pyrido[3,2-e]pyrazine]
9 | 10 to 100 |  | COc1ccc2nc(C)c3c(C)nc(-c4cc(Cl)ccc4OC)n3c2n1 [Example 84, 9-(5-Chloro-2-methoxyphenyl)-2-methoxy-6,7-dimethylimidazo[1,5-a]pyrido[3,2-e]pyrazine]
10 | > 100 |  | COc1cccc(C#Cc2nc(C)c3c(C)nc4ccc(OC)nc4n23)c1 [Example 94, 2-Methoxy-9-[(3-methoxyphenyl)ethynyl]-6,7-dimethylimidazo[1,5-a]pyrido[3,2-e]pyrazine]
11 | 10 to 100 |  | COc1ccc(-c2nc(C)c3c(C)nc4ccc(OC)nc4n23)cc1 [Example 55, 2-Methoxy-9-(4-methoxyphenyl)-6,7-dimethylimidazo[1,5-a]pyrido[3,2-e]pyrazine]
12 |  | 10 to 100 | COc1ccc2nc(C)c3c(C)nc(-c4cccnc4OC)n3c2n1 [Example 29, 2-Methoxy-9-(2-methoxypyridin-3-yl)-6,7-dimethylimidazo[1,5-a]pyrido[3,2-e]pyrazine]
13 |  | 10 to 100 | COc1ccc2nc(C)c3c(C)nc(-c4cccnc4)n3c2n1 [Example 10, 2-Methoxy-6,7-dimethyl-9-pyridin-3-ylimidazo[1,5-a]pyrido[3,2-e]pyrazine]
14 |  | 10 to 100 | COc1ccc2nc(C)c3c(C)nc(-c4ccc(Cl)c(Cl)c4)n3c2n1 [Example 7, 9-(3,4-Dichlorophenyl)-2-methoxy-6,7-dimethylimidazo[1,5-a]pyrido[3,2-e]pyrazine]
15 | > 100 |  | COc1ccc2nc(C)c3c(C)nc(-c4cccc(C(=O)N(C)C)c4)n3c2n1 [Example 104, 3-(2-Methoxy-6,7-dimethylimidazo[1,5-a]pyrido[3,2-e]pyrazin-9-yl)-N,N-dimethylbenzamide]
16 |  | 10 to 100 | COc1ccc2nc(C)c3c(C)nc(-c4cccc(F)c4)n3c2n1 [Example 5, 9-(3-Fluorophenyl)-2-methoxy-6,7-dimethylimidazo[1,5-a]pyrido[3,2-e]pyrazine]
17 | 10 to 100 |  | COc1ccc2nc(C)c3c(C)nc(-c4ccc(C#N)cc4)n3c2n1 [Example 74, 4-(2-Methoxy-6,7-dimethylimidazo[1,5-a]pyrido[3,2-e]pyrazin-9-yl)benzonitrile]

Row | IC50 (Table 8) [nM] | IC50 (Table 7) [nM] | SMILES
18 | > 100 |  | COc1ccc2nc(C)c3c(C)nc(C#Cc4ccc(F)cc4)n3c2n1 [Example 76, 9-[(4-Fluorophenyl)ethynyl]-2-methoxy-6,7-dimethylimidazo[1,5-a]pyrido[3,2-e]pyrazine]
19 | < 10 |  | COc1ccc2nc(C)c3c(C)nc(-c4ccc(Cl)cc4C)n3c2n1 [Example 80, 9-(4-Chloro-2-methylphenyl)-2-methoxy-6,7-dimethylimidazo[1,5-a]pyrido[3,2-e]pyrazine]
20 | 10 to 100 |  | COc1ccc2nc(C)c3c(C)nc(-c4ccsc4)n3c2n1 [Example 56, 2-Methoxy-6,7-dimethyl-9-(3-thienyl)imidazo[1,5-a]pyrido[3,2-e]pyrazine]
21 | 10 to 100 |  | COc1ccc2nc(C)c3c(C)nc(-c4cccc(C(=O)NC(C)C)c4)n3c2n1 [Example 103, N-Isopropyl-3-(2-methoxy-6,7-dimethylimidazo[1,5-a]pyrido[3,2-e]pyrazin-9-yl)benzamide]
22 |  | 10 to 100 | COc1ccc2nc(C)c3c(C)nc(-c4ccc(F)nc4)n3c2n1 [Example 9, 9-(6-Fluoropyridin-3-yl)-2-methoxy-6,7-dimethylimidazo[1,5-a]pyrido[3,2-e]pyrazine]
23 | < 10 |  | COc1ccc2nc(C)c3c(C)nc(-c4cc(C)ccc4Cl)n3c2n1 [Example 78, 9-(2-Chloro-5-methylphenyl)-2-methoxy-6,7-dimethylimidazo[1,5-a]pyrido[3,2-e]pyrazine]
24 | > 100 |  | CNC(=O)c1ccc(F)c(-c2nc(C)c3c(C)nc4ccc(OC)nc4n23)c1 [Example 107, 4-Fluoro-3-(2-methoxy-6,7-dimethylimidazo[1,5-a]pyrido[3,2-e]pyrazin-9-yl)-N-methylbenzamide]
25 |  | 10 to 100 | COc1ccc(-c2nc(C)c3c(C)nc4ccc(OC)nc4n23)cn1 [Example 28, 2-Methoxy-9-(6-methoxypyridin-3-yl)-6,7-dimethylimidazo[1,5-a]pyrido[3,2-e]pyrazine]
26 | 10 to 100 |  | CCNC(=O)c1cccc(-c2nc(C)c3c(C)nc4ccc(OC)nc4n23)c1 [Example 101, N-Ethyl-3-(2-methoxy-6,7-dimethylimidazo[1,5-a]pyrido[3,2-e]pyrazin-9-yl)benzamide]
27 | < 10 |  | COc1ccc2nc(C)c3c(C)nc(-c4cc(F)ccc4C)n3c2n1 [Example 81, 9-(5-Fluoro-2-methylphenyl)-2-methoxy-6,7-dimethylmidazo[1,5-a]pyrido[3,2-e]pyrazine]
28 |  | < 10 | CCCc1nc(C)c2c(Cl)nc3ccc(OCC)nc3n12 [Example 2, 6-Chloro-2-ethoxy-7-methyl-9-propylimidazo[1,5-a]pyrido[3,2-e]pyrazine]
29 | < 10 |  | COc1ccc2nc(C)c3c(C)nc(-c4ccc(F)cc4C)n3c2n1 [Example 82, 9-(4-Fluoro-2-methylphenyl)-2-methoxy-6,7-dimethylmidazo[1,5-a]pyrido[3,2-e]pyrazine]
30 | < 10 |  | COc1ccc2nc(C)c3c(C)nc(-c4cccc(Cl)c4)n3c2n1 [Example 48, 9-(3-Chlorophenyl)-2-methoxy-6,7-dimethylimidazo[1,5-a]pyrido[3,2-e]pyrazine]
31 | 10 to 100 |  | COc1ccc2nc(C)c3c(C)nc(C#Cc4ccccc4Cl)n3c2n1 [Example 96, 9-[(2-Chlorophenyl)ethynyl]-2-methoxy-6,7-dimethylimidazo[1,5-a]pyrido[3,2-e]pyrazine]
32 | 10 to 100 |  | COc1ccc2nc(C)c3c(C)nc(-c4cccc(-c5ccccc5)c4)n3c2n1 [Example 71, 9-Biphenyl-3-yl-2-methoxy-6,7-dimethylimidazo[1,5-a]pyrido[3,2-e]pyrazine]
33 | < 10 |  | COc1ccc2nc(C)c3c(C)nc(-c4cc(C(N)=O)ccc4F)n3c2n1 [Example 106, 4-Fluoro-3-(2-methoxy-6,7-dimethylimidazo[1,5-a]pyrido[3,2-e]pyrazin-9-yl)benzamide]
34 | 10 to 100 |  | COc1ccc2nc(C)c3c(C)nc(-c4cccc(C(F)(F)F)c4)n3c2n1 [Example 66, 2-Methoxy-6,7-dimethyl-9-[3-(trifluoromethyl)phenyl]imidazo[1,5-a]pyrido[3,2-e]pyrazine]
